These are literature values, as cited in patent US20200237731A1, “USE OF CLOXACILLIN TO INHIBIT/PREVENT BIOFILM FORMATION” (priority 2017, published 2020).

In data set [1] the test system is clinical isolates of S. aureus. The conditions noted are these: in vitro; Tunney et al., 2007; cited from earlier work.
Data set [2] has as its system biofilm forming Staphylococcus aureus. The conditions noted are these: compounds tested individually; Singh and Mishra, 2012; cited from earlier work.
Data set [3] relates to S. aureus. The conditions noted are these: sub-MIC doses; Mirani et al., 2011; cited from earlier work.
Data set [4] concerns S. aureus strain USA 300. The conditions noted are these: sub-MIC doses; Mlynek et al., 2016; cited from earlier work.
In data set [5] the test system is Clostridium difficile. The conditions noted are these: Vuotto et al., 2016; cited from earlier work.

On to gentamicin, for which the “effect of treatment of bone cement on biofilm formation” value in data set [1] is recorded as “ineffectiveness”.
In the case of `CC1(C)S[C@@H]2[C@H](NC(=O)[C@H](N)c3ccccc3)C(=O)N2[C@H]1C(=O)O` [ampicillin], the “preventive action against biofilm formation” value in data set [2] was “not sufficiently active”.
For `Cc1onc(-c2ccccc2)c1C(=O)N[C@@H]1C(=O)N2[C@@H]1SC(C)(C)[C@@H]2C(=O)O` [oxacillin], in data set [3], the “biofilm formation by S. aureus” value is reported as “induces biofilm formation”.
With penicillin, the “preventive action against biofilm formation” value in data set [2] is given as “not sufficiently active”.
In the case of `CC1(C)S[C@@H]2[C@H](NC(=O)[C@H](N)c3ccc(O)cc3)C(=O)N2[C@H]1C(=O)O` [amoxicillin], the “attachment of S. aureus strain USA 300” value in data set [4] is “induces attachment”.
`CN[C@H](CC(C)C)C(=O)N[C@H]1C(=O)N[C@@H](CC(N)=O)C(=O)N[C@H]2C(=O)N[C@H]3C(=O)N[C@H](C(=O)N[C@H](C(=O)O)c4cc(O)cc(O)c4-c4cc3ccc4O)[C@H](O)c3ccc(c(Cl)c3)Oc3cc2cc(c3O[C@@H]2O[C@H](CO)[C@@H](O)[C@H](O)[C@H]2O[C@H]2C[C@](C)(N)[C@H](O)[C@H](C)O2)Oc2ccc(cc2Cl)[C@H]1O` [vancomycin]: in data set [3], the “biofilm formation by S. aureus” value is recorded as “induces biofilm formation”.
As to `Cc1ncc([N+](=O)[O-])n1CCO` [metronidazole], the “biofilm formation by Clostridium difficile” value in data set [5] was “increases biofilm formation”.
